Assays:
ApoE-deficient mice = assay: Gross qualitative atherosclerotic lesion analysis of aortas, prevention of plaque formation (Example 1); type: in vivo; settings: 12-week old ApoE-deficient mice, 28 days
From the text: In Examples 1 and 2 knockout mice deficient in producing the protein Apolipoprotein E [apoE] were used. ApoE-deficient mice are known to spontaneously develop atherosclerotic plaque at 12-16 weeks, which process is accelerated by feeding the mice a high fat diet. Because the atherosclerotic lesions found in these mice are histologically similar to those found in humans, the ApoE-deficient mice are used as a model for assessing the effects of a drug on atherosclerotic plaque in humans. This example was carried out on ApoE-deficient knockout mice who were before their normal development of atherosclerotic plaque which occurs in about 12 weeks to determine the effect of compound X i.e. the compound: (N-[3-[5-[(4-fluorophenyl)methyl]-2-thienyl]-1-methyl-2-propynyl]-N-hydroxyurea) on the prevention of plaque formation. Four week old female ApoE knockout mice were fed a high fat diet (21% anhydrous milk fat and 0.15% cholesterol) for a period of eight weeks. […] The results which are given in FIG. 1 were analyzed by one-way analysis of variance (ANOVA) and Student's unpaired t-test comparing each treatment arm to the appropriate control arm.

[1] = tested on: patients with carotid stenosis undergoing elective carotid endarterectomy; assay: Randomized, double blind, placebo-controlled study in patients with carotid stenosis undergoing carotid endarterectomy (Example 4); type: in vivo, human; settings: 100 mg daily oral
Protocol: In this randomized, double blind, placebo-controlled study, groups of 40 clinically stable patients between the age of 30 and 80 years with carotid stenosis undergoing elective carotid endarterectomy are treated by orally administering 100 mg of Compound X or placebo. A total of 80 patients are enrolled. Baseline assessments are performed at the start of treatment and these baseline results are compared with repeat assessments during various follow-up periods of treatment. The treatment is conducted for at least twelve weeks at which time these baseline assessments are performed and compared. […]
Plaque samples are obtained from patients following carotid endarterectomy surgery and the samples are analyzed to determine the level of plaque tissue inflammation. […]
The co-primary efficacy variables are: the change from baseline in ex vivo plaque LTB4 synthesis in whole blood and in ex vivo plaque LTB4 concentration after 12 weeks of administration of study medication. […] The significance of the difference between the groups with respect to the ex vivo plaque LTB4 concentrations is assessed by a t-test. […]
The secondary outcome measures of percent macrophage sectional area and number of T lymphocytes in plaque are analyzed using t-tests at the 0.05 alpha level (two sided). […]

SMILES: CC(C#Cc1ccc(Cc2ccc(F)cc2)s1)N(O)C(N)=O (stereo not shown) [compound X, N-[3-[5-[(4-fluorophenyl)methyl]-2-thienyl]-1-methyl-2-propynyl]-N-hydroxyurea]
- extent of plaque in the proximal aorta (ApoE-deficient mice; high fat diet, 1, 10 and 50 mg/kg/day oral once daily, vs vehicle): reductions in the extent of plaque
- reduction of plaque formation in the proximal aorta compared to vehicle (ApoE-deficient mice; 50 mg/kg/day oral, p<0.03): ~40%
- number of ischemic lesions after carotid endarterectomy by brain MRI using DWI, vs placebo group ([1]; 12 weeks): reduction in the number of ischemic lesions
- level of biomarkers and plaque tissue inflammation, percentage of patients vs placebo group ([1]; 12 weeks of dosing): reduction in the level of biomarkers and plaque tissue inflammation
